{
  "source": "patent US11674962B2",
  "about": "“Therapeutic and diagnostic methods for cancer” (Genentech, Inc., priority 2017, dated 2023)",
  "tested_on": "locally advanced or metastatic non-small cell lung cancer (NSCLC)",
  "assay": "OAK phase III clinical trial (NCT02008227): atezolizumab vs docetaxel, outcomes by bTMB score and PD-L1 IHC",
  "format": "in vivo, human",
  "description": "A blood-based assay was used to evaluate the association between clinical response to treatment with atezolizumab (MPDL3280A) and blood tumor mutational burden (bTMB) score in patients with non-small cell lung cancer (NSCLC) enrolled in two clinical trials, a phase II clinical trial, POPLAR (Clinical Trial ID No.: NCT01903993), and a phase III clinical trial, OAK (Clinical Trial ID No.: NCT02008227), in which atezolizumab was administered as a monotherapy.\nPre-treatment blood samples from patients with NSCLC who were enrolled in the POPLAR and/or the OAK studies, in which atezolizumab was administered as a monotherapy, were evaluated for bTMB score and/or maximum somatic allele frequency (MSAF).\nThe OAK (Clinical Trial ID No.: NCT02008227) patient population evaluated for bTMB score consisted of 583 patients. Patients were eligible for enrollment in the OAK study if they had locally advanced or metastatic (e.g., stage IIIB, stage IV, or recurrent) NSCLC; disease progression during or following treatment with a prior platinum-containing regimen for locally advanced, unresectable/inoperable, or metastatic NSCLC, or disease recurrence within 6 months of treatment with a platinum-based adjuvant/neoadjuvant regimen; measurable disease, as defined by RECIST v1.1; and an ECOG performance status of 0 or 1. Participants were randomized to receive either atezolizumab at a dose of 1200 mg intravenously every three weeks or docetaxel 75 mg per square meter (mg/m^2) intravenously every three weeks. Treatment with atezolizumab could be continued as long as participants were experiencing clinical benefit, i.e., in the absence of unacceptable toxicity or symptomatic deterioration attributed to disease progression.\nAnalysis of bTMB was performed retrospectively. Progression-free survival (PFS) was defined as the time between date of randomization and date of first documented disease progression as assessed by the investigator using RECIST v.1.1 or death from any cause, whichever occurred first. Overall survival (OS) was defined as the time between the date of randomization until death due to any cause. Treatment arms were compared for OS and PFS individually using a univariate Cox regression model without stratification in the biomarker evaluable-population (BEP) and their subgroups or using a stratified (by randomization stratification factors) Cox model in the ITT population. No multiplicity correction was applied to p-values or confidence intervals (CI). Kaplan-Meier methodology was used to estimate median OS and PFS and construct survival curves.\nIn the OAK ITT population (N=850), 797 samples were available for analysis. Of these samples, 13 were removed for sample contamination >1%; 42 were removed for median exon coverage <800×; and 100 were removed for low MSAF<1%.\nThe OAK BEP (N=642) included 59 patients with EGFR mutation or ALK rearrangement, and 583 without known alterations.\nTo identify somatic mutations and calculate a bTMB score, whole blood samples obtained from each patient (collected in EDTA or Streck tubes) were processed through a series of spins to isolate plasma, from which cell free DNA (cfDNA) was extracted for sequencing analysis. Specifically, at least 20 ng purified cfDNA was used for library construction. Next-generation sequencing libraries using fragment barcodes and hybrid capture were constructed to analyze and sequence a pre-determined set of 394 genes that covered approximately 1.125 Mb of the exome. Specifically, purified libraries were hybrid captured using a 394-gene bait set and then further purified, pooled and loaded on an ILLUMINA® HISEQ® 4000 sequencing system. Sequenced libraries were aligned and sorted. In order to accurately call variants at low allele frequencies and minimize artifacts from sequencing, PCR, or DNA damage-related errors, sequenced libraries were processed by a cfDNA computational pipeline that corrected errors via the use of fragment barcodes. […]",
  "key": {"[1]": {"details": "OAK BEP with valid bTMB and PD-L1 IHC results, bTMB ≥16, n=156"}, "[2]": {"details": "OAK, bTMB score subgroup ≥10 (251 patients), atezolizumab vs docetaxel"}, "[3]": {"details": "OAK, bTMB score subgroup ≥16 (158 patients), atezolizumab vs docetaxel"}, "[4]": {"details": "OAK, bTMB score subgroup ≥20 (105 patients), atezolizumab vs docetaxel"}},
  "data": [
    {"substance": "atezolizumab", "values": [
      {"measurement": "OS HR (95% CI)", "setting": "OAK BEP with valid bTMB and PD-L1 IHC results, TC3 or IC3, n=103", "result": "0.44 (0.27-0.71)"},
      {"measurement": "OS HR (95% CI)", "setting": "[1]", "result": "0.64 (0.44-0.93)"},
      {"measurement": "PFS HR (95% CI)", "setting": "[1]", "result": "0.64 (0.46, 0.91)"},
      {"measurement": "OS HR (95% CI)", "setting": "OAK, BEP (n = 583), atezolizumab vs docetaxel", "result": 0.64},
      {"measurement": "PFS HR (95% CI)", "setting": "OAK, IHC− (complementary to TC1/2/3) and bTMB ≥16, n=93", "result": 0.78},
      {"measurement": "PFS HR (95% CI)", "setting": "OAK, IHC− (complementary to TC1/2/3 or IC1/2/3) and bTMB ≥16, n=53", "result": 0.68},
      {"measurement": "PFS HR (95% CI)", "setting": "OAK, IHC− (complementary to TC2/3) and bTMB ≥16, n=110", "result": 0.69},
      {"measurement": "PFS HR (95% CI)", "setting": "OAK, IHC− (complementary to TC2/3 or IC2/3) and bTMB ≥16, n=94", "result": 0.65},
      {"measurement": "PFS HR (95% CI)", "setting": "OAK, IHC− (complementary to TC3 or IC3) and bTMB ≥16, n=126", "result": 0.70},
      {"measurement": "OS HR (95% CI)", "setting": "OAK, ITT (n = 850), atezolizumab vs docetaxel", "result": 0.73},
      {"measurement": "PFS HR (95% CI)", "setting": "OAK, PD-L1 IHC TC0 and IC0 (bTMB evaluable), n=250", "result": 0.95},
      {"measurement": "PFS HR (95% CI)", "setting": "OAK, PD-L1 IHC TC1/2/3, IHC+ (bTMB evaluable), n=192", "result": 0.65},
      {"measurement": "PFS HR (95% CI)", "setting": "OAK, PD-L1 IHC TC1/2/3 or IC1/2/3, IHC+ (bTMB evaluable), n=328", "result": 0.83},
      {"measurement": "PFS HR (95% CI)", "setting": "OAK, PD-L1 IHC TC2/3, IHC+ (bTMB evaluable), n=150", "result": 0.65},
      {"measurement": "PFS HR (95% CI)", "setting": "OAK, PD-L1 IHC TC2/3 or IC2/3, IHC+ (bTMB evaluable), n=200", "result": 0.71},
      {"measurement": "PFS HR (95% CI)", "setting": "OAK, TC0 and IC0 and bTMB <16, n=197", "result": 1.03},
      {"measurement": "PFS HR (95% CI)", "setting": "OAK, TC0 and IC0 and bTMB ≥16, n=53", "result": 0.68},
      {"measurement": "PFS HR (95% CI)", "setting": "OAK, TC1/2/3 and bTMB <16, n=129", "result": 0.72},
      {"measurement": "PFS HR (95% CI)", "setting": "OAK, TC1/2/3 and bTMB ≥16, n=63", "result": 0.55},
      {"measurement": "PFS HR (95% CI)", "setting": "OAK, TC1/2/3 or IC1/2/3 and bTMB <16, n=225", "result": 0.94},
      {"measurement": "PFS HR (95% CI)", "setting": "OAK, TC1/2/3 or IC1/2/3 and bTMB ≥16, n=103", "result": 0.65},
      {"measurement": "PFS HR (95% CI)", "setting": "OAK, TC2/3 and bTMB <16, n=106", "result": 0.70},
      {"measurement": "PFS HR (95% CI)", "setting": "OAK, TC2/3 and bTMB ≥16, n=44", "result": 0.55},
      {"measurement": "PFS HR (95% CI)", "setting": "OAK, TC2/3 or IC2/3 and bTMB <16, n=140", "result": 0.73},
      {"measurement": "PFS HR (95% CI)", "setting": "OAK, TC2/3 or IC2/3 and bTMB ≥16, n=60", "result": 0.65},
      {"measurement": "PFS HR (95% CI)", "setting": "OAK, TC3 or IC3 and bTMB <16, n=73", "result": 0.71},
      {"measurement": "OS HR", "setting": "[2]", "result": 0.69},
      {"measurement": "PFS HR", "setting": "[2]", "result": 0.73},
      {"measurement": "OS HR", "setting": "[3]", "result": 0.64},
      {"measurement": "PFS HR", "setting": "[3]", "result": 0.65},
      {"measurement": "OS HR", "setting": "[4]", "result": 0.65},
      {"measurement": "PFS HR", "setting": "[4]", "result": 0.61},
      {"measurement": "median OS", "setting": "OAK, bTMB≥16, per treatment arm", "result": 13.5, "unit": "months"},
      {"measurement": "best overall response rate", "setting": "OAK, bTMB≥16 patients, per treatment arm", "result": 21, "unit": "%"},
      {"measurement": "PFS HR", "setting": "OAK, reference bTMB score of 14 (Dx+, n=188), atezolizumab vs docetaxel", "result": 0.68},
      {"measurement": "PFS HR", "setting": "OAK, reference bTMB score of 18 (Dx+, n=132), atezolizumab vs docetaxel", "result": 0.66}
    ]}
  ]
}
